The values below come from patent publication US12441726B2, “Compounds and uses thereof” (Foghorn Therapeutics Inc., priority 2020, dated 2025).

For one assay, the target named is BRG-1 (Homo sapiens, UniProt P51532). Briefly: ATPase catalytic activity assay (ADP-Glo), BRG-1. Conditions: for Emax: 1 h, read-out: BRG1 Max % Inhibition, ADP-Glo, 30 nM BRG-1, 400 μM ATP.
In a further assay the target is BRM (Homo sapiens, UniProt P51531). Put plainly: ATPase catalytic activity assay (ADP-Glo), BRM. As to conditions: 30 nM BRM, 400 μM ATP; for IC50: BRM ATPase: IC50 (uM).
BRM, sequence (P51531 whole entry): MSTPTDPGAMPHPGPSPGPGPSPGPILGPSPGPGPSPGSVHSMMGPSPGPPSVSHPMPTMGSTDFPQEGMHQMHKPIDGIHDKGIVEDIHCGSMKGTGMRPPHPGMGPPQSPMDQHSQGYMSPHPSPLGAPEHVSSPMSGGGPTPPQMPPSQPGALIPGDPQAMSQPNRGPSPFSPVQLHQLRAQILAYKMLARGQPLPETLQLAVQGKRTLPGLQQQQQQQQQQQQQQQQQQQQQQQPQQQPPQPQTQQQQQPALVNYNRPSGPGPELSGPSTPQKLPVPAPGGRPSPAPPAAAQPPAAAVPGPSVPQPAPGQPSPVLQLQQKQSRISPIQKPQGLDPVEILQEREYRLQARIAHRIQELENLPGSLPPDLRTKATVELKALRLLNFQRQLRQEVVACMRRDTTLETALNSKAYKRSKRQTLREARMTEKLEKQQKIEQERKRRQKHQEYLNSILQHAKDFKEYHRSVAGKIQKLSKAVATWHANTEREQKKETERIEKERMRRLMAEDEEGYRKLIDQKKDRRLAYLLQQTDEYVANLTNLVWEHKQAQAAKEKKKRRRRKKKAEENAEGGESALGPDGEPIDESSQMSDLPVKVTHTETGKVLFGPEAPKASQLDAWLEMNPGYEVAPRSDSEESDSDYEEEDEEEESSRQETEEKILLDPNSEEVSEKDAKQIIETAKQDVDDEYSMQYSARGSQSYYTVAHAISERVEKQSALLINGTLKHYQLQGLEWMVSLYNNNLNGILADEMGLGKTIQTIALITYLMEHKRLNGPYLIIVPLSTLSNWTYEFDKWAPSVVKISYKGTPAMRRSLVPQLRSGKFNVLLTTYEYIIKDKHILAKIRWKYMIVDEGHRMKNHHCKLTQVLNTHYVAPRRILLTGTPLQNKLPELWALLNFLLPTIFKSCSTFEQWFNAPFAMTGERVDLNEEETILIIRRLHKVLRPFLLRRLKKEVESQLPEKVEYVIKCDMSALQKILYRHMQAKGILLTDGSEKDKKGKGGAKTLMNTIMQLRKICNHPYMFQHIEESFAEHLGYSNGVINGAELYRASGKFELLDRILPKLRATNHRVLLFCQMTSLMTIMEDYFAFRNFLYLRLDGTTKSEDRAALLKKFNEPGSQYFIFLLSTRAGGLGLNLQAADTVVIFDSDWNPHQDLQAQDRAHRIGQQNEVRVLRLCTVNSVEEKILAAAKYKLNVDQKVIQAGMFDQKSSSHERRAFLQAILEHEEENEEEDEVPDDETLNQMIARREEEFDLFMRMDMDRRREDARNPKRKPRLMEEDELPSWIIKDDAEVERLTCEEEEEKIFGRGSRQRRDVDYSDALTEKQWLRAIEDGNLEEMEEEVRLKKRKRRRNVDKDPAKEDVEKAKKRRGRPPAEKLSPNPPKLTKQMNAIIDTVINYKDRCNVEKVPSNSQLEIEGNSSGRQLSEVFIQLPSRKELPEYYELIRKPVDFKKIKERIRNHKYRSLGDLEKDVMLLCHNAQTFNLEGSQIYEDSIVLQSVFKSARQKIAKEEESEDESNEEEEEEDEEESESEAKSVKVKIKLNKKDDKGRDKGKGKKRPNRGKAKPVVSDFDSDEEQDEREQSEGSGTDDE

BRG-1, sequence (P51532 whole entry): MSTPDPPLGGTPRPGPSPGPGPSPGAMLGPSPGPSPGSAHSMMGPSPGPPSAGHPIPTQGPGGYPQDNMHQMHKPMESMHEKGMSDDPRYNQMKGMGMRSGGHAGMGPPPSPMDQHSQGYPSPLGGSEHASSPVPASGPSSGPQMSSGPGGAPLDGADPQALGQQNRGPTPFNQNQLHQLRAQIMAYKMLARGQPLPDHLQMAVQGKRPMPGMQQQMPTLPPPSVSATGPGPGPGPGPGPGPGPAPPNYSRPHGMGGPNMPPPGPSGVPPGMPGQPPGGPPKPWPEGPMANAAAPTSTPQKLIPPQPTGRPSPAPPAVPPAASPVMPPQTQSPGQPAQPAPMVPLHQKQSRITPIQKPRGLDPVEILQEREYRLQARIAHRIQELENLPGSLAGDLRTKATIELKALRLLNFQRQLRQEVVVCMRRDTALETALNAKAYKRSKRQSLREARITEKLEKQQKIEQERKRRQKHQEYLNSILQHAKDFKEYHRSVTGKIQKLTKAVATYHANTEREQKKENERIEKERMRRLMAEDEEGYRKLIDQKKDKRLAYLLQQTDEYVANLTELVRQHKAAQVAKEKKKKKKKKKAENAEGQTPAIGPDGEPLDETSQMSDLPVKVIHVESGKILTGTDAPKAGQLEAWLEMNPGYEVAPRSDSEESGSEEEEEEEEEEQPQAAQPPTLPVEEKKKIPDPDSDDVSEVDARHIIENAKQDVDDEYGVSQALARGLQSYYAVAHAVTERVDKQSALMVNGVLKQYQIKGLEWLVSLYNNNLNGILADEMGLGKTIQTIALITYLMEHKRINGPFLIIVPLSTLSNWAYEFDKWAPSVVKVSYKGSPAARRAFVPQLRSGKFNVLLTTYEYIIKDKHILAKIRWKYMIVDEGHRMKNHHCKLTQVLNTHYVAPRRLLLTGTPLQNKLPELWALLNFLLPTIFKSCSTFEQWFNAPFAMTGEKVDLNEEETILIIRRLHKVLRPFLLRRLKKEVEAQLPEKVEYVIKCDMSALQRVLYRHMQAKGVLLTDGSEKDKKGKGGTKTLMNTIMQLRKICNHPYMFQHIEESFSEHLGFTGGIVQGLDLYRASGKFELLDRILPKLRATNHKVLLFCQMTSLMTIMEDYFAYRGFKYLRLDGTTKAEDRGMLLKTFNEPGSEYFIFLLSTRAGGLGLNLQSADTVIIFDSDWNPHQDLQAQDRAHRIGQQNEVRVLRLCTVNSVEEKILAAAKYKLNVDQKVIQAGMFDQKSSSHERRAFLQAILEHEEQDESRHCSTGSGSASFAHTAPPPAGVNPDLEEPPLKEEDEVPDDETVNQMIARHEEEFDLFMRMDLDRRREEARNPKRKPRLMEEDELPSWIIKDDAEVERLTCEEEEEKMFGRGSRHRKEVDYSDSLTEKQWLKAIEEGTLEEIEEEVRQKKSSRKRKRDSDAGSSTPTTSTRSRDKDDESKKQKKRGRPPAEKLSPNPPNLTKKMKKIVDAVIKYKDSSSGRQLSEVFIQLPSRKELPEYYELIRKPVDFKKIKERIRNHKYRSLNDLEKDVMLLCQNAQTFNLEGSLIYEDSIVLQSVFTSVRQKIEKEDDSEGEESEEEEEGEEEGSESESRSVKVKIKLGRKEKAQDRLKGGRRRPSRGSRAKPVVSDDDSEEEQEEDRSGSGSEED
Description for BRG-1: The ATPase catalytic activity of BRM or BRG-1 was measured by an in vitro biochemical assay using ADP-Glo™ (Promega, V9102). The ADP-Glo™ kinase assay is performed in two steps once the reaction is complete. The first step is to deplete any unconsumed ATP in the reaction. The second step is to convert the reaction product ADP to ATP, which will be utilized by the luciferase to generate luminesce and be detected by a luminescence reader, such as Envision.
Then following addition of 5 μL of ADP-Glo™ Reagent provided in the kit, the reaction incubates at room temperature for 40 minutes. Then 10 μL of Kinase Detection Reagent provided in the kit is added to convert ADP to ATP, and the reaction incubates at room temperature for 60 minutes. Finally, luminescence measurement is collected with a plate-reading luminometer, such as Envision.

Take `CC(C)n1ccc2c(-c3ccc4cnc(CNC(=O)c5ccc6c(c5)[C@](C)(C#N)COC6)cc4n3)cccc21` [Compound 174]: on BRG-1, the concentration for half-maximal inhibition (IC50) was in the range of 100 to 500 nM and the Emax is 95%. At BRM, the “BRM Max % Inhibition” value is given as 98% and the half-inhibitory concentration (IC50) was less than 0.1 µM.

For `COc1cc(C2COC2)ccc1-c1ccc2cnc(CNC(=O)c3ccc4c(c3)[C@](C)(C#N)COC4)cc2n1` [Compound 175], at BRG-1, the IC50 lay within 100 to 500 nM and the Emax was 86%. Moreover, at BRM, the “BRM Max % Inhibition” value came to 97% and the IC50 is less than 0.1 µM.

With `[2H]C1([2H])OC([2H])([2H])[C@@](C)(F)c2cc(C(=O)NCc3cc4nc(-c5cncc(C6CC6)n5)ccc4cn3)cnc21` [Compound 176], at BRG-1, the IC50 lay within 500 to 1000 nM and the Emax was determined as 83%. Also, at BRM, the “BRM Max % Inhibition” value came to 98% and the IC50 is less than 0.1 µM.

For `Cc1cn(C)c2cccc(-c3ccc4cnc(CNC(=O)c5ccc6c(c5)[C@](C)(C#N)COC6)cc4n3)c12` [Compound 177], at BRG-1, the IC50 lay within 500 to 1000 nM and the Emax amounted to 66%. For the same compound, on BRM, the “BRM Max % Inhibition” value was 94% and the half-inhibitory concentration (IC50) was 0.1 to 0.5 µM.

Take `CCn1ccc2c(-c3ccc4cnc(CNC(=O)c5ccc6c(c5)[C@](C)(C#N)COC6)cc4n3)cccc21` [Compound 178]: on BRG-1, the concentration for half-maximal inhibition (IC50) lay in the range of 100 to 500 nM and the Emax amounted to 96%. At BRM, the “BRM Max % Inhibition” value is recorded as 99% and the IC50 is less than 0.1 µM.

Take `Cn1ccc2c(-c3ccc4cnc(CNC(=O)c5ccc6c(c5)[C@](C)(C#N)COC6)cc4n3)cccc21` [Compound 179]: on BRG-1, the IC50 was 100 to 500 nM and the Emax worked out at 96%. Besides, on BRM, the “BRM Max % Inhibition” value was found to be 99% and the IC50 was less than 0.1 µM.

As for `Cn1c(=O)ccc2ccc(-c3ccc4cnc(CNC(=O)c5ccc6c(c5)[C@](C)(C#N)COC6)cc4n3)nc21` [Compound 180], on BRG-1, the IC50 lay in the range of 100 to 500 nM and the Emax is 99%. On BRM, the “BRM Max % Inhibition” value was found to be 100% and the IC50 was less than 0.1 µM.

Take `C[C@@]1(C#N)COCc2ncc(C(=O)NCc3cc4cc(-c5cncc(C6CC6)n5)ccc4cn3)cc21` [Compound 181]: on BRG-1, the half-maximal inhibitory concentration (IC50) fell in the range of 100 to 500 nM and the Emax was 97%. Moreover, at BRM, the “BRM Max % Inhibition” value came out at 100% and the IC50 was less than 0.1 µM.

`Cn1ncc2c(-c3ccc4cnc(CNC(=O)c5ccc6c(c5)[C@](C)(C#N)COC6)cc4n3)cccc21` [Compound 182]: on BRG-1, the IC50 fell in the range of 100 to 500 nM and the Emax stood at 95%. Moreover, on BRM, the “BRM Max % Inhibition” value is reported as 99% and the half-maximal inhibitory concentration (IC50) was less than 0.1 µM.

Regarding `C[C@@]1(F)COCc2ncc(C(=O)NCc3cc4nc(-c5ccnc(N6CCC6)n5)cnc4cn3)cc21` [Compound 183], at BRG-1, the IC50 was in the range of 100 to 500 nM and the Emax came to 82%. Also, at BRM, the “BRM Max % Inhibition” value is 98% and the half-inhibitory concentration (IC50) is less than 0.1 µM.

Take `COc1c(-c2ccc3cnc(CNC(=O)c4ccc5c(c4)[C@](C)(C#N)COC5)cc3n2)cnn1C(F)F` [Compound 184]: at BRG-1, the half-inhibitory concentration (IC50) lay in the range of 500 to 1000 nM and the Emax amounted to 67%. In addition, on BRM, the “BRM Max % Inhibition” value came out at 94% and the IC50 is 0.1 to 0.5 µM.

For `COc1nn([C@H]2C[C@H](F)C2)cc1-c1ccc2cnc(CNC(=O)c3ccc4c(c3)[C@](C)(C#N)COC4)cc2n1` [Compound 185], at BRG-1, the IC50 lay within 100 to 500 nM and the Emax is 87%. Moreover, at BRM, the “BRM Max % Inhibition” value was determined as 99% and the 50% inhibitory concentration (IC50) was less than 0.1 µM.

Consider `C[C@@]1(C#N)COCc2ccc(C(=O)NCc3cc4nc(-c5cn(C6COC6)nc5C5CC5)ccc4cn3)cc21` [Compound 186], for which, on BRG-1, the IC50 is 500 to 1000 nM and the Emax was 66%. At BRM, the “BRM Max % Inhibition” value is given as 97% and the IC50 is less than 0.1 µM.

On to `Cc1c(-c2ccc3cnc(CNC(=O)c4ccc5c(c4)[C@](C)(C#N)COC5)cc3n2)cnn1C1COC1` [Compound 187], for which, at BRG-1, the 50% inhibitory concentration (IC50) is greater than 1000 nM and the Emax was 42%. On BRM, the “BRM Max % Inhibition” value is recorded as 88% and the IC50 was 0.1 to 0.5 µM.

Consider `Cc1nn(C2COC2)cc1-c1ccc2cnc(CNC(=O)c3ccc4c(c3)[C@](C)(C#N)COC4)cc2n1` [Compound 188], for which, at BRG-1, the IC50 is greater than 1000 nM and the Emax turned out to be 41%. On BRM, the “BRM Max % Inhibition” value was 93% and the IC50 fell in the range of 0.1 to 0.5 µM.

For the compound `C[C@@]1(C#N)COCc2ncc(C(=O)NCc3cc4nc(-c5cccc(C6CC6)n5)ccc4nn3)cc21` [Compound 189], at BRG-1, the IC50 was in the range of 100 to 500 nM and the Emax worked out at 93%. On BRM, the “BRM Max % Inhibition” value turned out to be 99% and the IC50 was less than 0.1 µM.

Consider `C[C@@]1(F)COCc2ccc(C(=O)NCc3cc4nc(-c5ccnc(N6CCC6)n5)cnc4cn3)cc21` [Compound 190], for which, on BRG-1, the IC50 fell in the range of 100 to 500 nM and the Emax stood at 89%. Also, at BRM, the “BRM Max % Inhibition” value was 98% and the IC50 is less than 0.1 µM.

Turning to `C[C@@]1(F)COCc2ccc(C(=O)NCc3cc4nc(-c5ccnc(C6CC6)n5)cnc4cn3)cc21` [Compound 191], at BRG-1, the IC50 fell in the range of 500 to 1000 nM and the Emax worked out at 76%. At BRM, the “BRM Max % Inhibition” value stood at 97% and the 50% inhibitory concentration (IC50) is less than 0.1 µM.

Take `COc1nn(C(F)F)cc1-c1ccc2cnc(CNC(=O)c3cnc4c(c3)[C@](C)(F)COC4)cc2n1` [Compound 192]: on BRG-1, the half-inhibitory concentration (IC50) was in the range of 500 to 1000 nM and the Emax was determined as 60%. Besides, on BRM, the “BRM Max % Inhibition” value was 94% and the IC50 lay in the range of 0.1 to 0.5 µM.

Regarding `COc1nn(C(F)F)cc1-c1ccc2cnc(CNC(=O)c3ccc4c(c3)[C@](C)(C#N)COC4)cc2n1` [Compound 193], at BRG-1, the IC50 is 500 to 1000 nM and the Emax came out at 86%. At BRM, the “BRM Max % Inhibition” value is 99% and the IC50 was less than 0.1 µM.

On to `C[C@@]1(C#N)COCc2ccc(C(=O)NCc3cc4nc(-c5cccc(C6(C(F)F)COC6)c5)ccc4cn3)cc21` [Compound 194], for which, on BRG-1, the IC50 fell in the range of 500 to 1000 nM and the Emax was determined as 60%. For the same compound, at BRM, the “BRM Max % Inhibition” value turned out to be 93% and the IC50 fell in the range of 0.1 to 0.5 µM.

As to `COc1cc(C)nn1-c1ccc2cnc(CNC(=O)c3ccc4c(c3)[C@](C)(C#N)COC4)cc2n1` [Compound 195], on BRG-1, the IC50 was greater than 1000 nM and the Emax was determined as 47%. Moreover, at BRM, the “BRM Max % Inhibition” value is 84% and the IC50 lay in the range of 0.1 to 0.5 µM.

As to `Cn1ccc2ccc(-c3ccc4cnc(CNC(=O)c5ccc6c(c5)[C@](C)(C#N)COC6)cc4n3)nc2c1=O` [Compound 196], at BRG-1, the half-inhibitory concentration (IC50) is greater than 1000 nM and the Emax worked out at 59%. Besides, at BRM, the “BRM Max % Inhibition” value came to 86% and the IC50 was in the range of 0.1 to 0.5 µM.

In the case of `COc1nn(C2CCOC2)cc1-c1ccc2cnc(CNC(=O)c3ccc4c(c3)[C@](C)(C#N)COC4)cc2n1` (stereo partly shown) [Compound 197], on BRG-1, the IC50 was greater than 1000 nM and the Emax came to 59%. Moreover, on BRM, the “BRM Max % Inhibition” value is 89% and the IC50 was in the range of 0.1 to 0.5 µM.

As for `C[C@@]1(C#N)COCc2ncc(C(=O)NCc3cc4nc(-c5cccc(C6CC6)c5)ccc4nn3)cc21` [Compound 198], at BRG-1, the IC50 was 500 to 1000 nM and the Emax came to 76%. In addition, at BRM, the “BRM Max % Inhibition” value is 94% and the IC50 fell in the range of 0.1 to 0.5 µM.

On to `C[C@@]1(F)COCc2ccc(C(=O)NCc3cc4nc(-c5ccnc(C6CC6)n5)sc4cn3)cc21` [Compound 199], for which, on BRG-1, the half-maximal inhibitory concentration (IC50) is greater than 1000 nM and the Emax was 14%. In addition, on BRM, the “BRM Max % Inhibition” value was found to be 85% and the 50% inhibitory concentration (IC50) lay in the range of 0.1 to 0.5 µM.

With `COc1nn(C2CCC2)cc1-c1ccc2cnc(CNC(=O)c3ccc4c(c3)[C@](C)(C#N)COC4)cc2n1` [Compound 200], on BRG-1, the IC50 was in the range of 500 to 1000 nM and the Emax turned out to be 71%. At BRM, the “BRM Max % Inhibition” value worked out at 97% and the half-maximal inhibitory concentration (IC50) fell in the range of 0.1 to 0.5 µM.

For `COc1nn(C2COC2)cc1-c1ccc2cnc(CNC(=O)c3ccc4c(c3)[C@](C)(F)COC4)cc2n1` [Compound 201], at BRG-1, the IC50 was in the range of 500 to 1000 nM and the Emax amounted to 76%. For the same compound, on BRM, the “BRM Max % Inhibition” value was 99% and the IC50 is less than 0.1 µM.

Turning to `COc1nn(CC(F)F)cc1-c1ccc2cnc(CNC(=O)c3ccc4c(c3)[C@](C)(C#N)COC4)cc2n1` [Compound 202], on BRG-1, the IC50 lay in the range of 500 to 1000 nM and the Emax was found to be 67%. Further, on BRM, the “BRM Max % Inhibition” value came out at 94% and the IC50 is less than 0.1 µM.

`COCCn1cc(-c2ccc3cnc(CNC(=O)c4ccc5c(c4)[C@](C)(C#N)COC5)cc3n2)c(OC)n1` [Compound 203]: on BRG-1, the IC50 was greater than 1000 nM and the Emax was 26%. For the same compound, on BRM, the “BRM Max % Inhibition” value was 84% and the IC50 is 0.1 to 0.5 µM.

For `C[C@@]1(C#N)COCc2ccc(C(=O)NCc3cc4nc(-c5ccnc(C6(F)CC6)n5)ccc4cn3)cc21` [Compound 204], at BRG-1, the IC50 was in the range of 500 to 1000 nM and the Emax was found to be 82%. At BRM, the “BRM Max % Inhibition” value is reported as 97% and the IC50 is less than 0.1 µM.

For `CCC(C)(O)c1cccc(-c2ccc3cnc(CNC(=O)c4ccc5c(c4)[C@](C)(F)COC5)cc3n2)n1` (stereo partly shown) [Compound 205], on BRG-1, the concentration for half-maximal inhibition (IC50) was 500 to 1000 nM and the Emax was found to be 52%. Also, on BRM, the “BRM Max % Inhibition” value is given as 91% and the IC50 is 0.1 to 0.5 µM.

Regarding `C[C@@]1(C#N)COCc2ccc(C(=O)NCc3ncc4ccc(-c5cncc(C6CC6)n5)cc4n3)cc21` [Compound 206], at BRG-1, the IC50 was in the range of 100 to 500 nM and the Emax was 85%. Besides, at BRM, the “BRM Max % Inhibition” value is recorded as 99% and the IC50 was less than 0.1 µM.

Turning to `C[C@@]1(F)COCc2ccc(C(=O)NCc3cc4nc(-c5ccnc(N6CCC6)c5F)cnc4cn3)cc21` [Compound 207], at BRG-1, the concentration for half-maximal inhibition (IC50) lay within 100 to 500 nM and the Emax was found to be 89%. Also, at BRM, the “BRM Max % Inhibition” value is 98% and the IC50 is less than 0.1 µM.
